Laboratory results published in patent US20140004243A1, “SALTY TASTE ENHANCER” (AJINOMOTO CO., INC., priority 2011, published 2014).

What follows are compounds tested against T1, Human ENaC δ, β and γ subunit (Homo sapiens, UniProt P51168+P51170+P51172) (assay: Measurement of ENaC activation potency (MED) in ENaC-expressing oocyte, Two Electrode Voltage Clamp). Details: minimum effective dose at which current started to increase; ENaC-expressing African clawed frog oocyte; smaller MED = higher ENaC activation potency.
T1 construct: expressed in transfected cells; host or cells: Xenopus laevis (African clawed frog) oocytes injected with cRNA
T1 sequence (P51172 1-802): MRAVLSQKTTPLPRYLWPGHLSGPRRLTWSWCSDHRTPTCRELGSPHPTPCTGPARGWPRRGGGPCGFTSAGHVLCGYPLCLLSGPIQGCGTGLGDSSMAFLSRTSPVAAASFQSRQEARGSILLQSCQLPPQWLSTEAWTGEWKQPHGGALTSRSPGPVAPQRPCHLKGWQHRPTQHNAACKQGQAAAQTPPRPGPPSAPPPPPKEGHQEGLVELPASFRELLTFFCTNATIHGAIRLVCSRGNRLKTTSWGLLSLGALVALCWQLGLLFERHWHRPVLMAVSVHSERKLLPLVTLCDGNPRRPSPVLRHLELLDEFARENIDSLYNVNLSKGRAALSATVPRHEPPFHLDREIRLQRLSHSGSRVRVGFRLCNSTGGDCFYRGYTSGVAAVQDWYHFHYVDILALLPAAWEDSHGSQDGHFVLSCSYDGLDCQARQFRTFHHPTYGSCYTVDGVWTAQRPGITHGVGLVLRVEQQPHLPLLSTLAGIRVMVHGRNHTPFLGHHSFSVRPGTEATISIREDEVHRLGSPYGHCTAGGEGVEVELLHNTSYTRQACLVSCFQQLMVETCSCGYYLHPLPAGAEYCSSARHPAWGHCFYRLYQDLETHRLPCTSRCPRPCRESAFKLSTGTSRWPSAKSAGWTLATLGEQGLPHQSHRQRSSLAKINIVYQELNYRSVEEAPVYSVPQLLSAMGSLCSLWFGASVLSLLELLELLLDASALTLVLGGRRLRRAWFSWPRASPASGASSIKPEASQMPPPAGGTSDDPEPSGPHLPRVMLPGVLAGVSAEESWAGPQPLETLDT
T1 sequence (P51168 1-640): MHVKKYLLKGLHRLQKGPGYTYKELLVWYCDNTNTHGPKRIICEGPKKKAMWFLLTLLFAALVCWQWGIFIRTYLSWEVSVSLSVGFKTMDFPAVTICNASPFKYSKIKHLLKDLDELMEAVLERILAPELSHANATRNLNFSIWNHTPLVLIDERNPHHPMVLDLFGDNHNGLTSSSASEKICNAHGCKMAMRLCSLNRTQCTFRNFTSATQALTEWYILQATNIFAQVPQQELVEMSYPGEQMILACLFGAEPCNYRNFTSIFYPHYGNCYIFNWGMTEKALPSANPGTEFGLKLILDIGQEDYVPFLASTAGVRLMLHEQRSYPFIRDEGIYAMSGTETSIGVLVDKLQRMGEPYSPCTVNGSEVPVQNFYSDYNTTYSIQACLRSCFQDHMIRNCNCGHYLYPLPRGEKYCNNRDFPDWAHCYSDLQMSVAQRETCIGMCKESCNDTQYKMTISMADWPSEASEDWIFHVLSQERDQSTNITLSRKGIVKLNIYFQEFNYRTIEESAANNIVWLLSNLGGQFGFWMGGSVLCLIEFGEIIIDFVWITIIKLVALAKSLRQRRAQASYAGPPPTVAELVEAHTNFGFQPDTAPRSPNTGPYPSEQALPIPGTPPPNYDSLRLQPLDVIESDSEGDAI
T1 sequence (P51170 1-649): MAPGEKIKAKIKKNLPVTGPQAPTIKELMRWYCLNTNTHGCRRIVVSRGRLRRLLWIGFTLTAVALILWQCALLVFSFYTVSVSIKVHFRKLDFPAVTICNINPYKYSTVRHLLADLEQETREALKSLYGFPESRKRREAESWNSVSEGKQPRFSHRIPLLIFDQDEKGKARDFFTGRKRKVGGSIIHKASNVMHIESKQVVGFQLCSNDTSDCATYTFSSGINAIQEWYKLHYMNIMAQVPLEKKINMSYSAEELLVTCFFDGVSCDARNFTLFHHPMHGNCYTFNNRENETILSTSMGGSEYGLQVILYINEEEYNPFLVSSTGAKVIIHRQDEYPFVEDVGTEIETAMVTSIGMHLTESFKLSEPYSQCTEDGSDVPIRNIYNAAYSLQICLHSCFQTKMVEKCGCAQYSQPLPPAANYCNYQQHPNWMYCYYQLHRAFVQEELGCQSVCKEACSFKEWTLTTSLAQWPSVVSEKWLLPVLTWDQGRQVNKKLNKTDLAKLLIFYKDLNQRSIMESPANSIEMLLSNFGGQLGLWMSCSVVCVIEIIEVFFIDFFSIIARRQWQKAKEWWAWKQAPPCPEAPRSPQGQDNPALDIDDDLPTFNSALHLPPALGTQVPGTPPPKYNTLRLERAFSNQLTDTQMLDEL
Assay type: cell-based
Protocol: ENaC activation current value, namely, the inward current in ENaC-expressing oocyte was measured as follows.
According to the method described in Motonao Nakamura, Takao Shimizu: Experiment of African clawed frog oocyte, Experimental Medicine Vol. 11, No. 3, 224-232 (1993), oocyte was collected from African clawed frog, […], and the current value was measured by a Two Electrode Voltage Clamp technique. In the present invention, ND96 (96 mM NaCl, 2 mM KCl, 1 mM MgCl2, 5 mM Hepes, 1.8 mM CaCl2, pH 7.6) was used instead of MBS buffer in the above-mentioned document. Injector NANOLITER 2000 manufactured by World Precision Instruments was used for microinjection, OpusXpress 6000A manufactured by Molecular Devices was used for current value measurement by a Two Electrode Voltage Clamp technique, and Clampfit 10.2 software manufactured by Molecular Devices was used for data analysis.
Human ENaC δ, β and γ subunit genes shown by SEQ ID NOs: 1, 2 and 3, respectively, in the Sequence Listing were each cloned into a plasmid vector, and used as a template DNA for cRNA synthesis. cRNA was synthesized using MEGAscript kit manufactured by Ambion and according to the method of the manual of the manufacturer.
A mixture of the same amount of ENaC […] cRNA (0.4 to 0.8 μg/μL), and β and γ subunits cRNA (0.4 μg/μL) was injected into the oocyte of African clawed frog at […] per oocyte, and the oocyte was cultured for 16 hr-72 hr. Thereafter, the oocyte was set on a measuring apparatus OpusXpress 6000A, the electrodes were inserted into the oocyte, the voltage was clamped at a level lower by −30 mV than the resting membrane potential by a Two Electrode Voltage Clamp technique, and the current value was measured.
To measure the ENaC activation potency, oocyte was stimulated with each test compound, and the minimum effective dose (hereinafter to be abbreviated as MED) of the compound at the time point when the electric current started to increase was measured. In this case, whichever smaller value of the minimum effective dose of the stimulation compound that increased the current value by not less than 10%, and the minimum effective concentration of the compound that increased, by not less than 25%, the electric current increase value due to the stimulation by 5 μM capsazepine (CAS NO.: 138977-28-3), as compared to the current value before addition of the compound and without stimulation, was taken as MED. A smaller MED means higher ENaC activation potency.
Each test compound was directly dissolved in ND96, or first dissolved in dimethyl sulfoxide (DMSO) to 100 mM, and then prepared by diluting the solution with ND96 to a concentration used for the evaluation. The concentration of the test compound in ND96 was prepared to various concentrations within the range of 0.1 nM to 300 μm.
ND96 as a perfusion fluid was flown at a rate of 0.5 mL/min through the measuring apparatus OpusXpress 6000A on which ENaC-expressing oocyte was set, the perfusion fluid was temporarily stopped every 3 minutes to add a test compound solution (0.25 mL) dissolved in ND96 at a rate of 0.5 mL/min. In this way, the test compound was contacted with ENaC-expressing oocyte, and whether ENaC is activated by the compound was examined by measuring the current value. After addition of the test compound, feeding of the perfusion fluid was resumed to wash away the compound to be ready for the next addition of the compound.
The compound was added successively from a low concentration to a high concentration to stimulate ENaC-expressing oocyte. The concentrations actually added was, for example, 1 nM, 3 nM, 10 nM, 30 nM, 100 nM, 300 nM; 1 μM, 3 μM, 10 μm, 30 μm, 100 μm, 300 μm; 1.2 μM, 6 μM, 30 μm, 150 μm of one test compound. The compound was added from low concentrations to high concentrations at 3 min intervals. […]
An MED of 3 µM was found for `S=C(NCCc1ccccc1)NCc1cccc2ccccc12` [Example 20] in this work.
An MED of 1 µM was found for `Oc1ccc(CNC(=S)NCCc2ccccc2)cc1O` [Example 40, 1-(3,4-dihydroxybenzyl)-3-(2-phenylethyl)thiourea] in this work.
An MED of 0.1 µM was found for `C[C@@H](NC(=S)NCC(O)c1cc(O)ccc1O)c1cccc(O)c1` (stereo partly drawn) [Example 112] in this work.
An MED of 1.1 µM was found for `Oc1ccccc1CCNC(=S)NCc1ccccc1` [Example 62] in this work.
An MED of 3 µM was found for `Oc1ccc(CNC(=S)Nc2ccccc2)cc1O` [Example 46] in this work.
An MED of 3 µM was found for `C[C@@H](NC(=S)N/N=C/c1ccccc1O)c1ccccc1` [Example 35] in this work.
An MED of 3 µM was found for `S=C(NCCc1ccccn1)NCc1ccccc1` [Example 14] in this work.
An MED of 30 µM was found for `OCCNC(=S)NCc1ccccc1` [Example 15] in this work.
An MED of 30 µM was found for `COc1cc2c(cc1OC)CN(C(=S)NCCc1ccc(Cl)cc1)CC2` [Example 3] in this work.
An MED of 1 µM was found for `CS(=O)(=O)Nc1cccc(CNC(=S)NCCc2ccccc2)c1` [Example 86, 1-[3-(mesylamino)benzyl]-3-(2-phenylethyl)thiourea] in this work.
An MED of 5 µM was found for `Oc1ccc(NC(=S)NCCc2ccccc2)cc1O` [Example 47, 1-(3,4-dihydroxyphenyl)-3-(2-phenylethyl)thiourea] in this work.
An MED of 10 µM was found for `O=C(O)c1ccc(CNC(=S)NCCc2ccccc2)cc1` [Example 23] in this work.
An MED of 3 to 10 µM was found for `S=C(NCCc1ccccc1Br)NCc1ccccc1` [Example 74] in this work.
An MED of 0.3 µM was found for `CN(CCc1ccccc1O)C(=S)Nc1ccc(O)cc1C(=O)O` [Example 124] in this work.
An MED of 0.1 to 0.3 µM was found for `CN(CCc1ccccc1)C(=S)Nc1ccc(O)cc1C(=O)O` [Example 120] in this work.
An MED of 30 µM was found for `S=C(NCCc1ccccc1)N1Cc2ccccc2C1` [Example 55] in this work.
An MED of 1 µM was found for `S=C(NCCc1ccccc1)NCc1ccco1` [Example 21] in this work.
An MED of 10 µM was found for `COc1cccc(OC)c1NC(=S)NCCc1c[nH]c2ccc(O)cc12` [Example 126] in this work.
An MED of 10 µM was found for `C[C@@H](NC(=S)N[C@H](C)c1ccccc1)c1ccccc1` [Example 25] in this work.
An MED of 30 µM was found for `Oc1ccccc1CNC(=S)NCCc1ccccc1` [Example 61] in this work.
An MED of 1 µM was found for `Oc1ccc(CNC(=S)NCCc2ccccc2)cc1` [Example 43] in this work.
An MED of 1 µM was found for `COC[C@@H](NC(=S)NCCc1ccccc1)c1ccccc1` [Example 75] in this work.
An MED of 0.06 to 0.1 µM was found for `C[C@@H](NC(=S)NCCc1ccccc1O)c1ccc(O)c(O)c1` [Example 104] in this work.
An MED of 1 µM was found for `O=C(O)c1ccccc1NC(=S)Nc1ccccc1` [Example 39] in this work.
An MED of 3 µM was found for `Oc1cc2c(cc1O)CN(C(=S)NCCc1ccccc1)CC2` [Example 41, N-(2-phenylethyl)-3,4-dihydro-6,7-dihydroxyisoquinoline-2(1H)-carbothioamide] in this work.
An MED of 0.1 to 0.3 µM was found for `C[C@@H](NC(=S)NC(Cc1ccccc1O)C(=O)O)c1cccc(O)c1` (stereo partly drawn) [Example 106, 2-{3-[(R)-1-(3-hydroxyphenyl)ethyl]thioureido}-3-(2-hydroxyphenyl)propanoic acid] in this work.
An MED of 3 µM was found for `Oc1cc(O)cc(CNC(=S)NCCc2ccccc2)c1` [Example 68] in this work.
An MED of 30 µM was found for `FC(F)(F)c1ccc(CNC(=S)NCCc2ccccc2)cc1` [Example 30] in this work.
An MED of 1 µM was found for `CN(Cc1ccc(O)c(O)c1)C(=S)NCCc1ccccc1` [Example 42, 1-(3,4-dihydroxybenzyl)-1-methyl-3-(2-phenylethyl)thiourea] in this work.
An MED of 0.1 µM was found for `C[C@@H](NC(=S)NCC(O)c1cc(Br)ccc1O)c1cccc(O)c1` (stereo partly drawn) [Example 116] in this work.
An MED of 1 µM was found for `OC[C@H](Cc1ccccc1)NC(=S)NCc1ccccc1` [Example 57] in this work.
An MED of 3.3 µM was found for `COc1ccccc1CCNC(=S)NCc1ccccc1` [Example 29] in this work.
An MED of 10 µM was found for `CCC[C@@H](NC(=S)NCCc1ccccc1O)c1ccccc1` [Example 99] in this work.
An MED of 10 µM was found for `S=C(NCCC1CCCCC1)NCc1ccccc1` [Example 70] in this work.
An MED of 3 to 10 µM was found for `C[C@@H](NC(=S)NNCc1c(O)cccc1O)c1ccccc1` [Example 95] in this work.
An MED of 1 µM was found for `COC(CNC(=S)NCc1ccccc1)c1ccccc1` (stereo not drawn) [Example 77] in this work.
An MED of 0.3 µM was found for `O=C(O)c1ccccc1NC(=S)Nc1ccc(Cl)cc1` [Example 117] in this work.
An MED of 1 µM was found for `CC(C)CN(Cc1ccc(O)c(O)c1)C(=S)NCCc1ccccc1` [Example 48] in this work.
An MED of 3 µM was found for `S=C(NCCc1ccccc1)Nc1ccccc1` [Example 9] in this work.
